Test systems include DMS 114 small cell lung; M19-MEL melanoma; RXF-631 renal; KM20L2 colon; HOP-18 NSCLC; DMS 273 small cell lung; DLD-1 colon; SNB-78 CNS; MDA-N; P388 leukemia; SN12K1 renal; P388/ADR leukemia.
Holding throughout (test): NCI tumour cell line growth inhibition, 48 h

The structures appear in SMILES notation. Values joined by “and” are separate entries in the source; they are usually repeats but may differ in a detail not shown here. Equal values may be shown once.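 Cells were grown in 96-well plates and exposed to each compound for 48 hours at five concentrations; endpoints were interpolated linearly between bracketing concentrations, or set to the highest concentration if not reached. Here, GI50 denotes the concentration required for 50% inhibition of growth. TGI: concentration producing complete growth inhibition.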

Take `COc1ccc(/C=C\c2cc(OC)c(OC)c(OC)c2)cc1OCC(=O)O`: the TGI is above 100 µM with DMS 114 small cell lung; above 100 µM in the test on M19-MEL melanoma; above 100 µM in the test on RXF-631 renal; above 100 µM in the test with KM20L2 colon; above 100 µM in the test with HOP-18 NSCLC; 75.1 µM in the test on DMS 273 small cell lung. The TGI was above 90.2 µM in the test on DLD-1 colon, above 100 µM in the test with SNB-78 CNS and 13.5 µM with MDA-N.

With `CC[C@@H]1NC(C(=O)OC)Cc2c1[nH]c1ccccc21` (some centres not stated), the TGI with DMS 114 small cell lung, in the test on M19-MEL melanoma, with RXF-631 renal, in the test on KM20L2 colon, with HOP-18 NSCLC and with DMS 273 small cell lung was above 100 µM throughout. The TGI with DLD-1 colon and with SNB-78 CNS was above 100 µM throughout.

As for `Cc1nc2c(N)ncnc2o1`, the TGI in the test with DMS 114 small cell lung, in the test with M19-MEL melanoma, with RXF-631 renal, with KM20L2 colon, in the test with HOP-18 NSCLC and with DMS 273 small cell lung was above 100 µM throughout. The TGI in the test with DLD-1 colon and in the test on SNB-78 CNS was above 100 µM throughout.

Regarding `CCCCCCCCCCCC[N+]12CC[N+](CCN)(CC1)CC2`, the TGI in the test on DMS 114 small cell lung is above 100 µM; in the test with M19-MEL melanoma, above 100 µM; in the test on RXF-631 renal, above 100 µM; in the test with KM20L2 colon it was above 100 µM; in the test with HOP-18 NSCLC, above 100 µM; with DMS 273 small cell lung, 31.9 µM. Further, the TGI in the test with DLD-1 colon and in the test on SNB-78 CNS was above 100 µM each time.

With `NC(=S)N/N=C/c1ncccc1O`, the TGI with P388 leukemia was 1260 nM; with SN12K1 renal it was 13.7 µM; with M19-MEL melanoma, 16.9 µM and 39.7 µM; in the test on KM20L2 colon, 76.5 µM; with HOP-18 NSCLC, 141 µM; with DMS 273 small cell lung, 5.96 µM. Besides, the TGI in the test on DLD-1 colon is above 774 µM; with P388/ADR leukemia, above 1000 µM; with SNB-78 CNS it was above 1000 µM; in the test with MDA-N, above 853 µM. Also, the GI50 is 3.48 µM with M19-MEL melanoma; 3.74 µM with KM20L2 colon; 3.79 µM in the test with DLD-1 colon; 64.7 µM with SNB-78 CNS; 1900 nM in the test with MDA-N.

On to `CC12c3ccccc3C(OC=O)(c3ccccc31)C1(C)c3ccccc3C2(OC=O)c2ccccc21`, for which the TGI with DMS 114 small cell lung, in the test with M19-MEL melanoma, in the test on RXF-631 renal, in the test on KM20L2 colon, with HOP-18 NSCLC and in the test with DMS 273 small cell lung was above 100 µM throughout. Besides, the TGI in the test with DLD-1 colon and with SNB-78 CNS was above 100 µM each time.

Regarding `COC(=N)c1csc(C2OC(CO)C(O)C2O)n1` (configuration not stated), the TGI in the test on DMS 114 small cell lung, in the test with M19-MEL melanoma, in the test with RXF-631 renal, in the test with KM20L2 colon, in the test on HOP-18 NSCLC and with DMS 273 small cell lung was above 100 µM in each case. Besides, the TGI with DLD-1 colon and in the test with SNB-78 CNS was above 100 µM in each case.

Consider `Nc1nc(Cl)nc2c1ncn2C1CC(O)C(CO)O1` (configuration not stated), for which the TGI is 498 nM in the test with P388 leukemia; above 24.9 µM in the test with SN12K1 renal; above 100 µM with M19-MEL melanoma; above 100 µM in the test on KM20L2 colon; above 100 µM in the test on HOP-18 NSCLC; 47.1 µM in the test on DMS 273 small cell lung. In addition, the TGI in the test with DLD-1 colon, with P388/ADR leukemia and in the test on SNB-78 CNS was above 100 µM each time.

As for `O=C1C=C(Nc2ccc(Cl)cc2C(=O)c2ccccc2)c2ccccc2C1=O`, the TGI with DMS 114 small cell lung, with RXF-631 renal, in the test with KM20L2 colon, with HOP-18 NSCLC, in the test on DMS 273 small cell lung and with DLD-1 colon was above 100 µM throughout. The compound also had a TGI in the test with SNB-78 CNS above 100 µM.

In the case of `Oc1oc(C(=C2N=c3ccccc3=N2)c2ccc(Cl)cc2)c(O)c1-c1ccc(Cl)cc1`, the TGI in the test with DMS 114 small cell lung was 5.52 µM; with RXF-631 renal, above 100 µM; with KM20L2 colon, 10.2 µM; with HOP-18 NSCLC, above 100 µM; in the test with DMS 273 small cell lung it was 19.1 µM; with DLD-1 colon, above 100 µM. Moreover, the TGI in the test with SNB-78 CNS was above 100 µM.

Source of the values: PubChem BioAssay (NCI).
